From patent US5534498A, “Trypsin inhibitors” (Corvas International, Inc., priority 1993, dated 1996)

Columns and labels:
[1] = biological target: recombinant tissue plasminogen activator (Homo sapiens, UniProt P00750); experiment: Tissue plasminogen activator assay (S-2288 substrate); format: biochemical; settings: 30 min preincubation, room temperature; tested 0.025-25 μM; Inact. = no inhibition at highest concentration
Method: (§1) The specificity of the peptide aldehydes (8 through 12) was determined in vitro by measurement of their IC50 against other enzymes involved in hemostasis. A specific concentration of enzyme and its substrate were challenged with varying concentrations of inhibitor. […] Specific assay procedures used are presented below.
(§2) 96-well microtiter plates were prepared for use in these assays by incubating each well with 300 μL 1% bovine serum albumin (in deionized water) for 30 minutes at 37° C., then washing three times with deionized water.
(§3) The substrate was made up in deionized water prior to use.

[2] = biological target: T1, Activated human Protein C (Homo sapiens, UniProt P04070); experiment: Protein C assay (Pefachrome PC substrate); format: biochemical; settings: 30 min preincubation, room temperature; tested 0.025-25 μM; Inact. = no inhibition at highest concentration
T1 construct: from tissue
Method: as §1, §2
Enzyme activity was determined using as substrate, Pefachrome PC [δ-carbobenzoloxy-D-lysyl-L-prolyl-L-arginine-p-nitroanilide], purchased from Centerchem, Inc. The substrate was made up in deionized water prior to use. Protac used to activate Protein C was obtained from American Diagnostics.

Factor VIIa:rTF complex = biological target: T2, Factor VIIa:rTF complex (Homo sapiens, UniProt P08709); experiment: Factor VIIa assay (S-2288 substrate); format: biochemical; settings: 30 min preincubation, room temperature; tested 0.025-25 μM; Inact. = no inhibition at highest concentration
T2 construct: 2.5 ml 400 nMhuman Factor VIIa
Method: (§4) The specificity of the peptide aldehydes (8 through 12) was determined in vitro by measurement of their IC50 against other enzymes involved in hemostasis. A specific concentration of enzyme and its substrate were challenged with varying concentrations of inhibitor. IC50 is that concentration of inhibitor giving 50% inhibition of substrate turnover, under the assay conditions. Specific assay procedures used are presented below.
as §2
Enzyme activity was determined using as substrate, S-2288 [D-isoleucyl-L-prolyl-L-arginine-p-nitroanilide dihydrochloride], purchased from Kabi Diagnostica. The substrate was made up in deionized water prior to use.
Both solutions were then incubated for 30 minutes at room temperature before use in the assay.
The assay was run by combining in appropriate wells 50 μL inhibitor in TBS or TBS alone and 100 μL of Factor VIIa:rTF complex or background control, incubating this mixture for 30 minutes at room temperature, adding 50 μL of 2 mM S-2288, incubating for an additional 30 to 60 minutes at room temperature, then reading the absorbance of the wells at 405 nm on a microtiter plate reader set with background substraction at 650 nm.

plasmin = plasmin (Homo sapiens, UniProt P00747); experiment: Plasmin assay (S-2251 substrate); format: biochemical; design: 50 μL 25 nM human plasmin; settings: 30 min preincubation, room temperature; tested 0.025-25 μM; Inact. = no inhibition at highest concentration
Method: as §1, §2, §3

human Factor Xa = biological target: T3, human Factor Xa (Homo sapiens, UniProt P00742); experiment: Factor Xa assay (Pefachrome Xa substrate); format: biochemical; settings: 30 min preincubation, room temperature; tested 0.025-25 μM; Inact. = no inhibition at highest concentration
T3 construct: 50 μL 30 nM human Factor Xa
Method: as §1, §2
Enzyme activity was determined using as substrate, Pefachrome Xa [N-methoxycarbonyl-D-cyclohexylalanyl-L-glycyl-L-arginine p-niroanilide acetate], purchased from Centerchem, Inc. The substrate was made up in deionized water prior to use.

bovine thrombin = biological target: T4, bovine thrombin (Bos taurus, UniProt P00735); experiment: Thrombin assay (S-2238 substrate); format: biochemical; settings: 30 min preincubation, room temperature; tested 0.025-25 μM; Inact. = no inhibition at highest concentration
T4 construct: 50 μL 20 nM bovine thrombin
Method: as §4, §2
Enzyme activity was determined using as substrate, S-2238 [D-phenylalanyl-L-pipecolyl-L-arginine-p-nitroanilide dihydrochloride], purchased from Kabi Diagnostica. The substrate was made up in deionized water prior to use.
The assay was run by combining in appropriate wells 50 μL TBS and 50 μL inhibitor in TBS or TBS alone and 50 μL 20 nM bovine thrombin (or TBS as background control), incubating this mixture for 30 minutes at room temperature, adding 50 μL 1 mM S-2238, incubating for an additional 30 minutes at room temperature, then reading the absorbance of the wells at 405 nm on a microtiter plate reader set with background substraction at 650 nm.

bovine trypsin = biological target: T5, bovine trypsin (Bos taurus, UniProt P00760); experiment: Trypsin assay, IC50 (S-2222 substrate); format: biochemical; settings: 30 min preincubation, room temperature; tested 0.025-25 μM
T5 sequence (P00760 24-246): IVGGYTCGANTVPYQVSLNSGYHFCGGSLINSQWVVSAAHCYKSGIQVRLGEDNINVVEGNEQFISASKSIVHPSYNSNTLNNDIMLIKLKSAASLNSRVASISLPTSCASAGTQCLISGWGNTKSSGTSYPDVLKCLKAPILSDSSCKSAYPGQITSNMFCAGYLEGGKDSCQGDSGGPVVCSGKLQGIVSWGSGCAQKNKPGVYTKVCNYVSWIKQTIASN
Method: as §1, §2, §3

[3] = system: acute pancreatitis induced in animal models; settings: literature reports; cited from earlier work
trypsin [4] = settings: literature (Saino et al.); cited from earlier work
trypsin [5] = settings: literature (Jones); read-out: dissociation constant (Kd) trypsin; cited from earlier work
human acute pancreatitis = settings: literature reports; cited from earlier work
kallikrein = settings: literature; cited from earlier work

recombinant tissue plasminogen activator, sequence (P00750 36-562): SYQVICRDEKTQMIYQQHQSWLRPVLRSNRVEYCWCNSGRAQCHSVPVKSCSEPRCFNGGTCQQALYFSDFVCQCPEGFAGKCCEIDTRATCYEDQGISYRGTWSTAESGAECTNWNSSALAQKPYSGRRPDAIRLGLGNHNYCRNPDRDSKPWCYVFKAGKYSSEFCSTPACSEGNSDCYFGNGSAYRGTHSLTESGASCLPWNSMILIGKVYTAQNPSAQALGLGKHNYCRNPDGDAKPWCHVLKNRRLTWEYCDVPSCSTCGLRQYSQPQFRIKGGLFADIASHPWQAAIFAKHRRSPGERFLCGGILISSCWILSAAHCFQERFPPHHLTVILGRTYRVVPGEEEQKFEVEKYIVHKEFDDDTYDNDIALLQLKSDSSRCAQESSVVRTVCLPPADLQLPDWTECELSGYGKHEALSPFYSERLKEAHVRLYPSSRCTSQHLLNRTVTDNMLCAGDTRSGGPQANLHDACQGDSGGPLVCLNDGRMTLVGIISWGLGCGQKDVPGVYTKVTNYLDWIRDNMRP
T2 sequence (P08709 213-466 limits assumed): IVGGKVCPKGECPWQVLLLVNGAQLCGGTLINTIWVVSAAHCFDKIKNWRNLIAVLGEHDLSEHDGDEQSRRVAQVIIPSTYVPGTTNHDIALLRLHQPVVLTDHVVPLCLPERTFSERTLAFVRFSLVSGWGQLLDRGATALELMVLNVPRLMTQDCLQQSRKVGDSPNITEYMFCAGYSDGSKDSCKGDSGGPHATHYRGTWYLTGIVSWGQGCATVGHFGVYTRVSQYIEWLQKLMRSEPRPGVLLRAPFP
T2 sequence (P08709 61-212 partner limits assumed): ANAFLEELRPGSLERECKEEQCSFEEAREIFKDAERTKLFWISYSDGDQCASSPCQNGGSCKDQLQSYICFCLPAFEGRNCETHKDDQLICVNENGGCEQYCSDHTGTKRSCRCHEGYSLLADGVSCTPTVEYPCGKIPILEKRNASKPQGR
T2 sequence (P13726 33-295 partner): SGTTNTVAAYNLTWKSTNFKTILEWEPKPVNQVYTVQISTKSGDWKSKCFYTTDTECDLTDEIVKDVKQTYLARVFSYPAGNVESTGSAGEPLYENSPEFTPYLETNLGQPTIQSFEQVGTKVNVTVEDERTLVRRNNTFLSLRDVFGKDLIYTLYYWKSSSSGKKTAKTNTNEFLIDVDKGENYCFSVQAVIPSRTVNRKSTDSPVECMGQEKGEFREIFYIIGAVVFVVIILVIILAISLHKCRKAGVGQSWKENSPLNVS
T3 sequence (P00742 235-488 limits assumed): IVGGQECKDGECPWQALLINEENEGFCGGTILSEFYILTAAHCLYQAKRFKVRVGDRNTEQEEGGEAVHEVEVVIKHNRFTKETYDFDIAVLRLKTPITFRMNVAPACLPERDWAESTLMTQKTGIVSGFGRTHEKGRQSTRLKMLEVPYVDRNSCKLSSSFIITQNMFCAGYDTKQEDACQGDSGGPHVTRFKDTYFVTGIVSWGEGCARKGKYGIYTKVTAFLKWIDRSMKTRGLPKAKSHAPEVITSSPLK
T3 sequence (P00742 41-179 partner limits assumed): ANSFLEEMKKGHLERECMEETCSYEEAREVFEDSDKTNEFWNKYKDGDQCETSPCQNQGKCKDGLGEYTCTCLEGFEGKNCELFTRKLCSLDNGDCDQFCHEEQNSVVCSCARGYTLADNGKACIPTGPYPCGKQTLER
T1 sequence (P04070 212-461 limits assumed): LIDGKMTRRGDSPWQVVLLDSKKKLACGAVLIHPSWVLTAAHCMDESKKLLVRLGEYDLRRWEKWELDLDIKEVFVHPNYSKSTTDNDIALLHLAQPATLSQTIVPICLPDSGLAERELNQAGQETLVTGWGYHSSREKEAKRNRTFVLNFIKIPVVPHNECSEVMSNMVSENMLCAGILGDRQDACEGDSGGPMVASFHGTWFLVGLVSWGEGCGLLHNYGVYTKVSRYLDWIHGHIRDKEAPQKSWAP
T1 sequence (P04070 43-197 partner limits assumed): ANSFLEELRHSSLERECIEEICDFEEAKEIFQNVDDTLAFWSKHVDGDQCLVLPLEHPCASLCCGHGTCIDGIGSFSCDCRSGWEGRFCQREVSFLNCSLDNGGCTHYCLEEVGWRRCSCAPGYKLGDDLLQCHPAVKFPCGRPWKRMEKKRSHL
plasmin, sequence (P00747 581-810 limits assumed): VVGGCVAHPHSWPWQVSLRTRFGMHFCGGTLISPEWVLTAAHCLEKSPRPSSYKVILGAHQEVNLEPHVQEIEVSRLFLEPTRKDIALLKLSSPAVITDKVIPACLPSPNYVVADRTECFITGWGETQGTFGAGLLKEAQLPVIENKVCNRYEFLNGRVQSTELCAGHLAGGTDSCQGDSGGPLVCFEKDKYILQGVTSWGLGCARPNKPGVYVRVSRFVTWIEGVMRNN
plasmin, sequence (P00747 97-580 partner limits assumed): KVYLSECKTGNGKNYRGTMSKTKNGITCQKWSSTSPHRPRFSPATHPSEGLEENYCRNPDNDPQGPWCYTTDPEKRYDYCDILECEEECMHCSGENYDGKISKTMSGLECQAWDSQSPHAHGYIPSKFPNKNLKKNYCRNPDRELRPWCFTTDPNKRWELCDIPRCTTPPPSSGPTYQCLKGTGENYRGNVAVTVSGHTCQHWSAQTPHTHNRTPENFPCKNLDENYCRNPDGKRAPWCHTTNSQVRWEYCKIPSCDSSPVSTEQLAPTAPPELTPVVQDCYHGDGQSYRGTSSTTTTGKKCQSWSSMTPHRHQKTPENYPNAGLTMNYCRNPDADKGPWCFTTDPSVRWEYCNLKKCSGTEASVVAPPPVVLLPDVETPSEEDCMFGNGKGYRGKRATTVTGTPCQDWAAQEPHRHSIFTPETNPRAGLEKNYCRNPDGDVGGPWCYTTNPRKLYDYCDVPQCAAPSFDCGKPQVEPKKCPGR

IC50 tPA [1] | IC50 Xa (human Factor Xa) | IC50 Thrombin (bovine thrombin) | Molecule | IC50 [1] [µM] | IC50 [2] [µM] | IC50 (Factor VIIa:rTF complex) [µM] | IC50 (plasmin) [µM] | IC50 (human Factor Xa) [µM] | IC50 (bovine thrombin) [µM] | IC50 (bovine trypsin) [µM] | efficacy in the treatment of acute pancreatitis induced in animal models [3] | IC50 against trypsin, times lower than that for N-acetyl-L-leucyl-L-leucy-L-argininal (trypsin [4]) | Kd (trypsin [5]) [pM] | efficacy in the treatment of human acute pancreatitis (human acute pancreatitis) | Kd (kallikrein) [µM]
– | – | – | CCOC(=O)c1ccc(OC(=O)CCCCCN=C(N)N)cc1.CS(=O)(=O)O [FOY, gabexate mesilate, reference compound] | 9 | 15 | > 25 | 1.6 | 8 | 6 | 0.25 | effective to varying degrees | – | – | – | –
– | – | – | CC(C)C[C@H](NC(=O)[C@@H]1CCC(=O)N1C(=O)OCc1ccccc1)C(=O)N[C@H](C=O)CCCNC(=N)N [N-benzyloxycarbonyl-L-pyroglutamyl-L-leucyl-L-argininal] | – | – | – | – | – | – | – | – | about 7 times | – | – | –
Inact. | Inact. | Inact. | Aprotinin [reference compound] | – | 2 | > 25 | – | – | – | – | – | – | 30 | ineffective | 0.1
